Assay results from patent publication US5292757A, “1,4-dihydropyridine compounds useful as reverse resistance agents” (Ajinomoto Company, Inc., priority 1991, dated 1994).
≈ marks a conversion by molar mass, not a printed value. Where a name gives a salt, the structure may show the parent alone.

Columns and labels:
colon 26 cells = test: Regression of tumor in colon 26 bearing mice in combination with adriamycin; type: in vivo, mouse (CDF1); conditions: for reducing tumor weight: in combination with adriamycin
Experimental: 20 mg of colon 26 cells were transplanted subcutaneously to CDF1 mice (6 weeks old, female) on day 0. On day 6 the diameter of the tumor was measured and groups of 5 mice were selected having equal average tumor size. On day 7 and 14, 10 mg/kg of adriamycin was injected i.v. and the tested compounds were administered p.o. at 0, 8, 24, 32 hours after the injection of adriamycin. Adriamycin was dissolved in saline to a concentration of 2 mg/ml and the compounds in Example 61 and 62 were dissolved in saline to a concentration of 50 mg/ml. The diameter of the tumor was measured each week and tumor weight was estimated as follows: [formula] (L:long diameter, S:short diameter, mm)

[1] = test system: Vincristine-resistant mouse P388 leukemia cells; test: Test of effect on overcoming anti-cancer drug resistance (growth inhibition by vincristine, MTT method); type: cell-based
Experimental: Vincristine-resistant mouse P388 leukemia cells were used as an example of resistant cancer cells. RPMI-1640 medium containing 5 μM of 2-mercaptoethanol and 10% fetal calf serum was used for incubation.
The cells were inoculated on a 96-well microplate in 1×10^4 /50 μl/well and 25 μl each of vincristine solution having a specific concentration and an aqeous solution of the test compound (4 μg/ml) was added thereto. After culturing at 37° C. for 2 days, the viable cells were counted by the MTT method and a dose-response curve of vincristine was prepared. Based on the curve, the concentration (IC50) of vincristine producing a 50% inhibition of growth was determined.

[2] = compound dose 250 mg p.o. with adriamycin 10 mg/kg i.v., hydrochloride
[3] = compound dose 500 mg p.o. with adriamycin 10 mg/kg i.v., hydrochloride

Row | SMILES | tumor weight (colon 26 cells; [2]) [g] | tumor weight (colon 26 cells; [3]) [g] | reducing tumor weight (colon 26 cells) | other results
1 | COC(=O)C1=C(C)N(CCCc2ccccc2)C(C)=C(C(=O)OCCCc2cccnc2)C1c1ccc(OC)c(OC)c1 (single isomer, unassigned; (-)) [Example 62, (-)-1,4-dihydro-4-(3,4-dimethoxyphenyl)-2,6-dimethyl-1-(3-phenylpropyl-3,5-pyridinedicarboxylic acid 3-methyl-5-[3-(3-pyridyl)propyl]ester hydrochloride] | 1.8 | 1.1 | effective in reducing tumor weight in combination with adriamycin | –
2 | CC[C@]1(O)C[C@H]2CN(CCc3c([nH]c4ccccc34)[C@@](C(=O)OC)(c3cc4c(cc3OC)N(C=O)[C@H]3[C@@](O)(C(=O)OC)[C@H](OC(C)=O)[C@]5(CC)C=CCN6CC[C@]43[C@@H]65)C2)C1 [vincristine, reference compound] | – | – | – | IC50 ([1]; Mus musculus, P388, 48 h, read-out: IC50 of vincristine alone): 0.05 to 0.1 µg/mL (≈ 0.0606 to 0.121 µM)
3 | COc1cccc2c1C(=O)c1c(O)c3c(c(O)c1C2=O)C[C@@](O)(C(=O)CO)C[C@@H]3O[C@H]1C[C@H](N)[C@H](O)[C@H](C)O1 [Adriamycin, reference compound] | – | – | – | tumor weight (colon 26 cells; adriamycin 10 mg/kg i.v. alone, no test compound (untreated 4.5 g)): 2.7 g
4 | COC(=O)C1=C(C)N(CCCc2ccccc2)C(C)=C(C(=O)OCCCc2cccnc2)C1c1ccc(OC)c(OC)c1 (single isomer, unassigned; (+)) [Example 61, (+)-1,4-dihydro-4-(3,4-dimethoxyphenyl)-2,6-dimethyl-1-(3-phenylpropyl)-3,5-pyridinedicarboxylic acid 3-methyl-5-[3-(3-pyridyl)propyl] ester hydrochloride] | 2.2 | 2 | effective in reducing tumor weight in combination with adriamycin | –
5 | COC(=O)C1=C(C)N(CCCc2ccccc2)C(C)=C(C(=O)OCCCN2CCN(CC(C)C)CC2)C1c1ccc(OC)c(OC)c1 (stereo not drawn) [Example 3, 1,4-dihydro-4-(3,4-dimethoxyphenyl)-2,6-dimethyl-1-(3-phenylpropyl)-3,5-pyridinedicarboxylic acid 3-methyl-5-[3-(4-isobutylpiperazino)propyl]ester] | – | – | – | IC50 (concentration of vincristine producing a 50% inhibition of growth in the presence of the compound) ([1]; vincristine IC50, test compound present at 1 μg/ml, 37° C., 2 days, MTT): 0.0015 µg/mL
